Measured values from patent US10668134B2, “Dental pretreatment material and dental tissue regeneration kit” (National Center for Geriatrics and Gerontology, priority 2016, dated 2020).

Experiments:
[1] = test system: Fourth-passage human dental pulp cells; assay: Migration promotion of dental pulp cells by culture supernatant of senescent dental pulp stem cells (TAXIscan-FL); assay type: cell-based; conditions: 1 μl DPSC CM containing 1 μl of 20 mg/ml compound as attractant; n=4; non 5.0 ± 1.0
Procedure: (§1) Non-separated 22nd-passage human dental pulp stem cells were brought into a state of 50% confluence. The medium was replaced with a serum-free medium. After 24 hours, the culture conditioned medium was collected. The supernatant was concentrated approximately 40-fold using Amicon Ultra-15 Centrifugal Filter Unit with Ultracel-3 membrane (Millipore, Billerica, Mass.) with 3-kDa molecular cut. Proteinase inhibitors (Halt™ proteinase inhibitor cocktail EDTA-free, Thermo Scientific, Rockford, Ill., USA) was added. The mixture was dispended to be stored at −80° C. Protein content was measured using Bradford Ultra™ (Expedeon, Cambridge, UK).
Fourth-passage human dental pulp cells were plated in DMEM containing 10% FBS in 10 cm dishes (FALCON) at 2×10^4 cells/ml. After 48 hours, the cells were detached, and a real-time horizontal chemotaxis analysis was performed using TAXlscan-FL (Effector Cell Institute, Tokyo) to measure the migratory capacity. Specifically, channels optimized (8 μm) for the size of the cells were formed between a silicon plate having 6 μm pores and a glass plate, and 1 μl of treated dental pulp cells (10^5 cells/ml) was injected to one end portion of each of the channels (n=4). As a control, one of the channels received nothing at the opposite end portion. […] Based on the video images of migration, the number of migrating cells after 12 hours was measured.

[2] = test system: Eleventh-passage human periodontal ligament cells; assay: Expression of migratory capacity-related factors in senescent cells of human periodontal membrane (real-time RT-PCR); assay type: cell-based; conditions: control = 1
Procedure: Eleventh-passage human periodontal ligament cells were plated in DMEM containing 10% FBS in collagen-coated 35 mm dishes (IWAKI) at a density of 2×10^4 cells/ml. After 20 hours, ALK5 inhibitor (SB431542) was added to final concentrations of 5 ng/μl and 10 ng/μl. Further, CCR3 antagonist (SB328437) was added to final concentrations of 5 ng/μl and 10 ng/μl. After 48 hours, mRNA was extracted, and real-time RT-PCR was performed on senescence markers, namely p16, p53, IL6, IL1b, IL8, and TNFα (Table 4).
Real-time RT-PCR was performed on migratory capacity-related factors, namely, MMP9, MMP3, and MMP2 (Table 8) using mRNA similar to that described in 2 above.

[3] = test system: TGW cells (human neuroblastoma cell line); assay: Neurite outgrowth in TGW cells with culture conditioned medium of senescent dental pulp stem cells; assay type: cell-based; conditions: after 48 hours, DPSC CM alone 111.5 ± 14.1 μm
Procedure: as §1
The culture supernatant (5 μg/ml proteins) prepared in 1 above was added to TGW cells (human neuroblastoma cell line). Further, an ALK5 inhibitor (SB431542, 10 ng/μl) was added to a part of the resultant mixture, and a CCR3 antagonist (SB328437, 5 ng/μl) was added to another part of the resultant mixture. TGW cells to which only the culture supernatant was added was used as a negative control. […] Neurite outgrowth after 48 hours was observed and measured with an inverted microscope (Leica).

[4] = test system: post-pulpectomy root canal of a tooth of the canine of middle or advanced age; assay: Dental pulp regeneration after trypsin pretreatment plus root canal filler containing CCR3 antagonist; assay type: in vivo, dog; conditions: pretreatment with trypsin (50 μg/ml with nanobubble liquid, 10 minutes) then filler with 200 ng; after 14 days; vs no pretreatment
Procedure: After 7 to 14 days following a pulpectomy treatment, the treated root canal underwent alternate washing, and then, washing with physiologic saline. Smear clean was then allowed to react for 2 minutes. The root canal was then further washed with physiologic saline, and dried. Further, FRANCETIN⋅T⋅POWDER (2,500 USP of crystalized trypsin per 10 mg) (MOCHIDA PHARMACEUTICAL CO., LTD.) was mixed with a nanobubble liquid into a 50 μg/ml (0.05%) solution. The solution was allowed to react for 10 minutes. The root canal was washed with physiologic saline, and dried. In the same manner as in Example 3, a root canal filler was prepared by suspending 1×10^6 allogeneic dental pulp stem cells, which had been membrane-isolated, in 40 μl of a scaffold (Koken Atelocollagen Implant), and by suspending 3 μl of a 100 μg/ml G-CSF (NEUTROGIN). Further a CCR3 antagonist (SB328437, 200 ng) was added to the root canal filler. The root canal filler was injected into the post-pulpectomy root canal. After 14 days following the transplantation, the tooth was extracted, and 5 μm paraffin sections were prepared. The paraffin sections were then H-E stained to undergo morphological observation.

[5] = test system: Fifth-passage human periodontal membrane cells; assay: mRNA expression of CCL11, CCR3 and GDF11 in human periodontal membrane cells (real-time RT-PCR); assay type: cell-based; conditions: 5, 10 and 30 ng/μl added; after 32 hours
Procedure: Fifth-passage human periodontal membrane cells were plated in a DMEM containing 10% FBS in collagen-coated 35 mm dishes (IWAKI) at a density of 2×10^4 cells/ml. After 9 hours, an ALK5 inhibitor (SB431542) was added to final concentrations of 5 ng/μl, 10 ng/μl, and 30 ng/μl. Further, a CCR3 antagonist (SB328437) was added to final concentrations of 5 ng/μl, 10 ng/μl, and 30 ng/μl. After 32 hours, mRNA was extracted, and real-time RT-PCR was performed on CCL11, CCR3, and GDF11.

## COC(=O)[C@H](Cc1ccc([N+](=O)[O-])cc1)NC(=O)c1cccc2ccccc12 [CCR3 antagonist, SB328437]
[1]
  number of migrating cells after 12 hours, Average ± SD: 23.7 ± 5.1
[2]; 5 ng/μl
  MMP2 expression (migratory capacity-related factor): 0.54
  MMP3 expression (migratory capacity-related factor): 2.34
  MMP9 expression (migratory capacity-related factor): 0
[2]; 10 ng/μl
  MMP2 expression (migratory capacity-related factor): 0.75
  MMP3 expression (migratory capacity-related factor): 0.54
  MMP9 expression (migratory capacity-related factor): 0.63
[3]; DPSC CM + 5 ng/μl
  Neurite Outgrowth Length: 518.7 ± 126.5 μm
[4]
  amount of regenerated dental pulp tissue: significant increase
[5]
  mRNA expression of CCL11: completely suppressed
  mRNA expression of CCR3: completely suppressed

## NC(=O)c1ccc(-c2nc(-c3ccc4c(c3)OCO4)c(-c3ccccn3)[nH]2)cc1 [ALK5 inhibitor, SB431542]
[1]
  number of migrating cells after 12 hours, Average ± SD: 12.7 ± 2.1
[2]; 5 ng/μl
  MMP2 expression (migratory capacity-related factor): 0.93
  MMP3 expression (migratory capacity-related factor): 1.08
  MMP9 expression (migratory capacity-related factor): 0.10
[2]; 10 ng/μl
  MMP2 expression (migratory capacity-related factor): 1.02
  MMP3 expression (migratory capacity-related factor): 0.96
  MMP9 expression (migratory capacity-related factor): 0.06
[3]; DPSC CM + 10 ng/μl
  Neurite Outgrowth Length: 2710.5 ± 1223.0 μm
[5]
  increase of expression of GDF11 mRNA: 5 times
  mRNA expression of CCL11: completely suppressed
